Reference: the supplement of paper PMC10307832

Key:
Experiment in all cases: relative viability (nuclei count vs DMSO), 5 days (fraction); higher = more cells survive
[1] = test system: IA-LM
Summary of the method: (§1)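 A single step with final 0.05% Triton X-100, 1% formaldehyde and 1 ug/ml Hoechst fixed the cells and stained nuclei 5 days after treatment. Lung cancer cell lines in 1536-well plates had been treated by pin tool the day after seeding with one drug alone or a fixed anchor-drug dose plus five library-drug doses (not always all listed) in √10 steps, and nuclei were counted on 4× images. Relative viability is the ratio of nuclei in treated wells to nuclei in vehicle wells, taken as the median of duplicate plates.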

[2] = test system: UMC-11
Summary of the method: as §1

[3] = test system: EBC-1
Summary of the method: as §1

[4] = test system: EKVX
Summary of the method: as §1

[5] = test system: LCLC-103H
Summary of the method: as §1

[6] = test system: NCI-H1299
Summary of the method: as §1

[7] = test system: A549
Summary of the method: as §1

[8] = test system: HCC-44
Summary of the method: as §1

[9] = test system: NCI-H1755
Summary of the method: as §1

[10] = test system: NCI-H1703
Summary of the method: as §1

[11] = test system: Calu-6
Summary of the method: as §1

[12] = test system: HCC-15
Summary of the method: as §1

For `Nc1ccn([C@@H]2O[C@H](CO)[C@@H](O)[C@@H]2O)c(=O)n1` [Cytarabine] + C[C@@H](Oc1cc(-c2cnn(C3CCNCC3)c2)cnc1N)c1c(Cl)ccc(F)c1Cl [Crizotinib] (partner 1 µM), the relative viability ([1]; first compound 0.005 µM) was 0.864, the relative viability ([1]; first compound 0.01581 µM) was 0.62 and the relative viability ([1]; first compound 0.05 µM) was 0.729. It also gave a relative viability ([1]; first compound 0.1581 µM) of 0.414, a relative viability ([1]; first compound 0.5 µM) of 0.121 and a relative viability ([2]; first compound 0.005 µM) of 0.454. The relative viability ([2]; first compound 0.01581 µM) was 0.52, the relative viability ([2]; first compound 0.05 µM) was 0.336 and the relative viability ([2]; first compound 0.1581 µM) was 0.267. For the same molecule, the relative viability ([2]; first compound 0.5 µM) was 0.205, the relative viability ([3]; first compound 0.01581 µM) was 0.171 and the relative viability ([3]; first compound 0.05 µM) was 0.178. For the same molecule, the relative viability ([3]; first compound 0.1581 µM) was 0.149, the relative viability ([3]; first compound 0.5 µM) was 0.159 and the relative viability ([4]; first compound 0.005 µM) was 0.802. For the same molecule, the relative viability ([4]; first compound 0.01581 µM) was 1.07, the relative viability ([4]; first compound 0.05 µM) was 0.827 and the relative viability ([4]; first compound 0.1581 µM) was 0.368. The relative viability ([4]; first compound 0.5 µM) was 0.287, the relative viability ([5]; first compound 0.005 µM) was 0.942 and the relative viability ([5]; first compound 0.01581 µM) was 1.03. It also gave a relative viability ([5]; first compound 0.05 µM) of 1.07, a relative viability ([5]; first compound 0.1581 µM) of 1.03 and a relative viability ([5]; first compound 0.5 µM) of 0.977. For the same molecule, the relative viability ([6]; first compound 0.005 µM) was 0.956, the relative viability ([6]; first compound 0.01581 µM) was 0.99 and the relative viability ([6]; first compound 0.05 µM) was 1.03. For the same molecule, the relative viability ([6]; first compound 0.1581 µM) was 0.961, the relative viability ([6]; first compound 0.5 µM) was 0.943 and the relative viability ([7]; first compound 0.005 µM) was 0.541. It also gave a relative viability ([7]; first compound 0.01581 µM) of 0.53, a relative viability ([7]; first compound 0.05 µM) of 0.449 and a relative viability ([7]; first compound 0.1581 µM) of 0.0819. The relative viability ([7]; first compound 0.5 µM) was 0.0747, the relative viability ([8]; first compound 0.005 µM) was 0.776 and the relative viability ([8]; first compound 0.01581 µM) was 0.831. For the same molecule, the relative viability ([8]; first compound 0.05 µM) was 0.626, the relative viability ([8]; first compound 0.1581 µM) was 0.383 and the relative viability ([8]; first compound 0.5 µM) was 0.378. The relative viability ([9]; first compound 0.005 µM) was 0.788, the relative viability ([9]; first compound 0.01581 µM) was 0.761 and the relative viability ([9]; first compound 0.05 µM) was 0.565. The relative viability ([9]; first compound 0.1581 µM) was 0.265, the relative viability ([9]; first compound 0.5 µM) was 0.286 and the relative viability ([10]; first compound 0.005 µM) was 0.484. The relative viability ([10]; first compound 0.01581 µM) was 0.375, the relative viability ([10]; first compound 0.05 µM) was 0.299 and the relative viability ([10]; first compound 0.1581 µM) was 0.148. The relative viability ([10]; first compound 0.5 µM) was 0.205, the relative viability ([11]; first compound 0.005 µM) was 0.722 and the relative viability ([11]; first compound 0.01581 µM) was 0.706. The relative viability ([11]; first compound 0.05 µM) was 0.623, the relative viability ([11]; first compound 0.1581 µM) was 0.433 and the relative viability ([11]; first compound 0.5 µM) was 0.259. For the same molecule, the relative viability ([12]; first compound 0.005 µM) was 0.765, the relative viability ([12]; first compound 0.01581 µM) was 0.895 and the relative viability ([12]; first compound 0.05 µM) was 0.84. The relative viability ([12]; first compound 0.1581 µM) was 0.67 and the relative viability ([12]; first compound 0.5 µM) was 0.591.
